Results reported in US20230265151A1, “GIP/GLP1 CO-AGONIST COMPOUNDS” (priority 2020, published 2023).
Where two headings read alike, the source gives them in different places. *1 amine or outer side, *2 acyl side, *3 side chain or, on linkers, in order; H or OH if unused. Where a SMILES comes first, the peptide text is derived from it. Side-chain parts run from the residue outwards. [ ]: non-standard residue; d: D form. The star is where a group is joined. αMePhe(2-F) = C[C@](N)(Cc1ccccc1F)C(=O)O; γGlu = O=C(O)[C@H](CCC(=O)[*:2])N[*:1]; C14 diacid = O=C(O)CCCCCCCCCCCCC(=O)*; αMeY = C[C@](N)(Cc1ccc(O)cc1)C(=O)O; αMeL = CC(C)C[C@](C)(N)C(=O)O; Orn = NCCC[C@H](N)C(=O)O; AEEA = NCCOCCOCC(=O)O; Aib = CC(C)(N)C(=O)O

Tests used:
Format in all cases: cell-based
hGLP-1R = hGLP-1R (Homo sapiens, UniProt P43220); experiment: Functional cAMP formation (HTRF) in HEK-293 clonal cells expressing hGLP-1R, 0.1% bovine casein, without or with 1.0% human serum albumin; design: expressed in transfected cells; conditions: for Emax: percent of maximal response to GLP-1(7-36)NH2; for EC50: cAMP
Method in brief: (§1)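 Cells were stimulated with peptide for 30 min at 37° C, then intracellular cAMP was measured by competitive HTRF (665/620 nm ratio) and converted to nM using a cAMP standard curve. Relative EC50 and Emax came from four-parameter logistic fits of percent maximal response against peptide concentration.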

hGIPR = target: T1, hGIPR (Homo sapiens, UniProt P48546); experiment: Functional cAMP formation (HTRF) in HEK-293 clonal cells expressing hGIPR, 0.1% bovine casein, without or with 1.0% human serum albumin; conditions: for Emax: percent of maximal response to GIP(1-42)NH2; for EC50: cAMP
T1 construct: expressed in transfected cells
T1 sequence (P48546 22-466): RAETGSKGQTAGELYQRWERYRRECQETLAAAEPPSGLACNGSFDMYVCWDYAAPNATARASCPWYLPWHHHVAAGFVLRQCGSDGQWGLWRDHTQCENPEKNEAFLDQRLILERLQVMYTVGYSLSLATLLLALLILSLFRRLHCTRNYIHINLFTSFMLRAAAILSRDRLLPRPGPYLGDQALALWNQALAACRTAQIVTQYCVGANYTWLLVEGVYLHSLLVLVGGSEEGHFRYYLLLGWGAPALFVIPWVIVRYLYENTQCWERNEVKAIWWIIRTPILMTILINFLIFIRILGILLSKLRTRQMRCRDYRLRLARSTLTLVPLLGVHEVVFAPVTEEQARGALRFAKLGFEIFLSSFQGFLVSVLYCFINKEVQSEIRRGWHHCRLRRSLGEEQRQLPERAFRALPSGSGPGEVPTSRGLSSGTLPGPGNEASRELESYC
Method in brief: as §1

hGCGR = target: T2, hGCGR (Homo sapiens, UniProt P47871); experiment: Functional cAMP formation (HTRF) in HEK-293 clonal cells expressing hGCGR, 0.1% bovine casein, without or with 1.0% human serum albumin; conditions: cAMP, 37° C.
T2 construct: expressed in transfected cells
Method in brief: as §1

Sequence of hGLP-1R (P43220 24-463): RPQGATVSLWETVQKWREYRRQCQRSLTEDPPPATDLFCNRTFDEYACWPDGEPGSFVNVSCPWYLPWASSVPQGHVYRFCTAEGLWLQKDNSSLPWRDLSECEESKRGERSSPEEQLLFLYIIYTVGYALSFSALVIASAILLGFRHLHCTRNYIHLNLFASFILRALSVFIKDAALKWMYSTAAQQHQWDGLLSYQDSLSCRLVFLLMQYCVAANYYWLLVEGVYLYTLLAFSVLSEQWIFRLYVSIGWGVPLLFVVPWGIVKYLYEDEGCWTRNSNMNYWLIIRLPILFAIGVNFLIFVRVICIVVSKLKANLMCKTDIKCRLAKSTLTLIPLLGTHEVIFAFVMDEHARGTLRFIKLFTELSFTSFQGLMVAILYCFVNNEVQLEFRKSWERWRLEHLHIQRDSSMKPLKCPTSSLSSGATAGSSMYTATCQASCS
T2 sequence (P47871 26-477): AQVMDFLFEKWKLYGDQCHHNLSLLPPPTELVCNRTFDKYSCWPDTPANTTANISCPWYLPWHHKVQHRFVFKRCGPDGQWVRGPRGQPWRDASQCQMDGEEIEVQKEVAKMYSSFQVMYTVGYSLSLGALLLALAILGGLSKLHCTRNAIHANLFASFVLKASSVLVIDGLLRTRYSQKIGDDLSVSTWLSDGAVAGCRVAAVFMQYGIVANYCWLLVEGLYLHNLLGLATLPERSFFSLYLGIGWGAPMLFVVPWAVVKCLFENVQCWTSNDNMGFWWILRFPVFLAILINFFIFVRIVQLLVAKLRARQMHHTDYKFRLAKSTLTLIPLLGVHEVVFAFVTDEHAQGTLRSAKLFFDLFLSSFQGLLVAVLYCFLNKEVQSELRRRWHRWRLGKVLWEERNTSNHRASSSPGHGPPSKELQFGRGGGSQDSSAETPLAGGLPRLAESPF

Structure (SMILES)	Emax (hGLP-1R; HEK293, read-out: hGLP-1R Emax, % ± SEM, cAMP, 37° C., 0.1% bovine casein and 1.0% human serum albumin) [%]	EC50 (hGLP-1R; hGLP-1R EC50, nM (SEM, n), 37° C., 0.1% bovine casein (no human serum albumin), geometric mean) [nM]	EC50 (hGLP-1R; hGLP-1R EC50, nM (SEM, n), 37° C., 0.1% bovine casein and 1.0% human serum albumin, geometric mean (SEM, n)) [nM]	Emax (hGIPR; HEK293, read-out: hGIPR Emax, % ± SEM, cAMP, 37° C., 0.1% bovine casein and 1.0% human serum albumin) [%]	Emax (hGIPR; HEK293, read-out: hGIPR Emax, % ± SEM, cAMP, 37° C., 0.1% bovine casein, arithmetic mean) [%]	EC50 (hGIPR; hGIPR EC50, nM (SEM, n), 37° C., 0.1% bovine casein (no human serum albumin), geometric mean) [nM]	EC50 (hGIPR; hGIPR EC50, nM (SEM, n), 37° C., 0.1% bovine casein and 1.0% human serum albumin, geometric mean (SEM, n)) [nM]	EC50 (hGCGR; hGCGR EC50, nM (SEM, n), 0.1% bovine casein (no human serum albumin), geometric mean) [nM]	EC50 (hGCGR; hGCGR EC50, nM (SEM, n), 0.1% bovine casein and 1.0% human serum albumin, geometric mean (SEM, n)) [nM]	Emax (hGLP-1R; HEK293, cAMP, 37° C., 0.1% bovine casein and 1.0% human serum albumin, read-out: hGLP-1R Emax, % ± SEM) [%]	Emax (hGLP-1R; HEK293, cAMP, 37° C., 0.1% bovine casein, arithmetic mean, read-out: hGLP-1R Emax, % ± SEM) [%]	EC50 (hGLP-1R; 37° C., 0.1% bovine casein (no human serum albumin), geometric mean, read-out: hGLP-1R EC50, nM (SEM, n)) [nM]	Emax (hGIPR; HEK293, cAMP, 37° C., 0.1% bovine casein and 1.0% human serum albumin, read-out: hGIPR Emax, % ± SEM) [%]	Emax (hGIPR; HEK293, cAMP, 37° C., 0.1% bovine casein, arithmetic mean, read-out: hGIPR Emax, % ± SEM) [%]	EC50 (hGIPR; 37° C., 0.1% bovine casein (no human serum albumin), geometric mean, read-out: hGIPR EC50, nM (SEM, n)) [nM]	EC50 (hGCGR; 0.1% bovine casein (no human serum albumin), geometric mean, read-out: hGCGR EC50, nM (SEM, n)) [nM]	EC50 (hGCGR; 0.1% bovine casein and 1.0% human serum albumin, geometric mean (SEM, n), read-out: hGCGR EC50, nM (SEM, n)) [nM]
CC[C@H](C)[C@H](NC(=O)[C@H](CC(C)C)NC(=O)[C@](C)(Cc1ccc(O)cc1)NC(=O)[C@@H](CCC(=O)O)NC(=O)[C@@H](NC(=O)[C@H](Cc1ccccc1)NC(=O)[C@H](CCCCNC(=O)COCCOCCNC(=O)COCCOCCNC(=O)CCCCCCCCCOc1ccc(C(=O)O)cc1)NC(=O)C(C)(C)NC(=O)[C@H](CCC(N)=O)NC(=O)[C@H](C)NC(=O)[C@H](CCCCNC(=O)COCCOCCNC(=O)COCCOCCNC(=O)CCCCCCCCCOc1ccc(C(=O)O)cc1)NC(=O)[C@H](CCCN)NC(=O)[C@H](CC(=O)O)NC(=O)[C@H](CC(C)C)NC(=O)[C@](C)(CC(C)C)NC(=O)[C@@H](NC(=O)C(C)(C)NC(=O)[C@@H](NC(=O)[C@H](CC(=O)O)NC(=O)[C@H](CO)NC(=O)[C@@H](NC(=O)[C@](C)(Cc1ccccc1F)NC(=O)[C@@H](NC(=O)CNC(=O)[C@H](CCC(=O)O)NC(=O)C(C)(C)NC(=O)[C@@H](N)Cc1ccc(O)cc1)[C@@H](C)O)[C@@H](C)O)C(C)C)[C@@H](C)CC)[C@@H](C)CC)C(=O)N[C@@H](CCC(=O)O)C(=O)NCC(=O)NCC(=O)N1CCC[C@H]1C(=O)N[C@@H](CO)C(=O)N[C@@H](CO)C(=O)NCC(=O)N[C@@H](C)C(=O)N1CCC[C@H]1C(=O)N1CCC[C@H]1C(=O)N1CCC[C@H]1C(=O)N[C@@H](CO)C(N)=O [Example 394]	96.8	0.223	5.83	84.6	97.7	0.0179	1.38	> 9950	> 9950								
CC[C@H](C)[C@H](NC(=O)[C@H](CC(C)C)NC(=O)[C@](C)(Cc1ccc(O)cc1)NC(=O)[C@@H](CCC(=O)O)NC(=O)[C@@H](NC(=O)[C@H](Cc1ccccc1)NC(=O)[C@H](CCCN)NC(=O)C(C)(C)NC(=O)[C@H](CCC(N)=O)NC(=O)[C@H](C)NC(=O)[C@H](CCCCNC(=O)COCCOCCNC(=O)COCCOCCNC(=O)CC[C@H](NC(=O)CCCCCCCCCCCCC(=O)O)C(=O)O)NC(=O)[C@H](CCCN)NC(=O)[C@H](CC(=O)O)NC(=O)[C@H](CC(C)C)NC(=O)[C@](C)(CC(C)C)NC(=O)[C@@H](NC(=O)C(C)(C)NC(=O)[C@H](Cc1ccc(O)cc1)NC(=O)[C@H](CC(=O)O)NC(=O)[C@H](CO)NC(=O)[C@@H](NC(=O)[C@](C)(Cc1ccccc1F)NC(=O)[C@@H](NC(=O)CNC(=O)[C@H](CCC(=O)O)NC(=O)C(C)(C)NC(=O)[C@@H](N)Cc1ccc(O)cc1)[C@@H](C)O)[C@@H](C)O)[C@@H](C)CC)[C@@H](C)CC)C(=O)N[C@@H](CCCCNC(=O)COCCOCCNC(=O)COCCOCCNC(=O)CC[C@H](NC(=O)CCCCCCCCCCCCC(=O)O)C(=O)O)C(=O)NCC(=O)NCC(=O)N1CCC[C@H]1C(=O)N[C@@H](CO)C(=O)N[C@@H](CO)C(=O)NCC(=O)N[C@@H](C)C(=O)N1CCC[C@H]1C(=O)N1CCC[C@H]1C(=O)N1CCC[C@H]1C(=O)N[C@@H](CO)C(N)=O [Example 349] (H-Y[Aib]EGT[αMePhe(2-F)]TSDY[Aib]I[αMeL]LD[Orn]K([AEEA-AEEA-γGlu-C14 diacid])AQ[Aib][Orn]FI[dE][αMeY]LIK([AEEA-AEEA-γGlu-C14 diacid])GGPSSGAPPPS-NH2; N-terminus assumed)										94.3	99	0.334	79.3	95.9	0.015	> 9950	> 9950
